From US20240067693A1, “POLYPEPTIDES AND USES THEREOF” (MEDIMMUNE LIMITED, priority 2020, published 2024) come the findings set out here.

Series [1] deals with T1, human amylin receptor (calcitonin receptor co-expressed with receptor activity modifying protein, RAMP3) (hAMYR3) (Homo sapiens, UniProt O60896+P30988).
T1 construct: expressed in transfected cells
T1 sequence (P30988 25-474): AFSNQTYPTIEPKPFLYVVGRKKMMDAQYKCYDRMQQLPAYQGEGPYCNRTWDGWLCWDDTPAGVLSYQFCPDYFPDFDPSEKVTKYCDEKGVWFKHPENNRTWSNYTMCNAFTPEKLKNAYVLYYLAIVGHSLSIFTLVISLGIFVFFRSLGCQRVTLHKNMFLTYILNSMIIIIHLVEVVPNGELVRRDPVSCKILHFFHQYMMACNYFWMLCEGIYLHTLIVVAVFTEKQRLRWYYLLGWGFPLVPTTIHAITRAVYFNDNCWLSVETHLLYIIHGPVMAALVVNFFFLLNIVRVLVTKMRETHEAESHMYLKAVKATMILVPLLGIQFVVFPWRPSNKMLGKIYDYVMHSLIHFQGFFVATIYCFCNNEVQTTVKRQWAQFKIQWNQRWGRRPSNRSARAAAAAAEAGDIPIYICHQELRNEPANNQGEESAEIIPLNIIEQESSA
T1 sequence (O60896 24-148 partner): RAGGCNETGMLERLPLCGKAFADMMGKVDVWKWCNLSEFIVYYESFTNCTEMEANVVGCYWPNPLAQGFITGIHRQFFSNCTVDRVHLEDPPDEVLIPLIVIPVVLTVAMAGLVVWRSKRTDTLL
As to the kind of experiment: cAMP production in 1321N1 cells with stable recombinant expression of human amylin receptor (hAMYR3). Type of series: cell-based. Conditions: for Ratio (selectivity hAMYR vs hCTR, ratio of EC50 values at the two receptors): EC50 hCTR / EC50 hAMYR3; for EC50: cAMP, 1321N1 cells, assay buffer with 0.1% BSA, read-out: EC50 (pM) hAMYR3. The essentials: (§1)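 Thawed cells in HBSS/0.1% BSA/25 mM HEPES pH 7.4 with 0.5 mM IBMX were incubated with peptides 30 min at room temperature; cAMP read by HTRF. EC50 from 4-parameter fit of % activation relative to maximal amylin or calcitonin effect.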
On the technique in general: Changes in cAMP serve as a functional read-out for many G protein-coupled receptors.

The target in series [2] is T2, human calcitonin receptor (hCTR) (Homo sapiens, UniProt P30988).
T2 construct: expressed in transfected cells
T2 sequence (P30988 25-474): T1 sequence (P30988 25-474)
In words: cAMP production in 1321N1 cells with stable recombinant expression of human calcitonin receptor (hCTR). Type of series: cell-based. The note with it: cAMP, 1321N1 cells, assay buffer with 0.1% BSA; read-out: EC50 (pM) hCTR. In short, it runs like this: as §1

Series [3] can be described thus: Thioflavin T fibrillation assay. Type of series: physicochemical. Conditions: for Time taken to detect increase in fluorescence intensity: ThT fibrillation assay, peptide 1 mg/mL in 25 mM sodium acetate buffer pH 4.0, 6 days at 37 °C with shaking, >144 h = no increase. The essentials:
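Peptides at 1 mg/mL in 25 mM sodium acetate pH 4.0 with ThT (from 0.25 mM stock), incubated 6 days at 37 °C with intermittent orbital shaking at 500–750 rpm. Fluorescence (ex 444/em 480 nm) read every 30 min; value is average time to a rise in baseline-corrected signal.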

A further series concerns lean rats. In words: Rat acute food intake study. Conditions: lean male Sprague Dawley rats, 20 nmol/kg subcutaneously. It counts as in vivo. In short, it runs like this:
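Male Sprague Dawley rats (n=7/group), fasted 6 h, received 20 nmol/kg test compound or 60 nmol/kg pramlintide subcutaneously 30 min before food return at dark onset. Food intake recorded automatically in home cages over 3 days, binned hourly and analysed as cumulative dark-period intake; body weight taken daily.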

SMILES strings stand for the structures. Numbered stars: 1 amine (or outer) side, 2 acyl side, 3 side chain; on linkers, the order of the positions; unused ones are H or OH. Bridge positions count the residues as written; N and C are the ends. Square brackets hold non-standard residues; d marks the D form. Side chains are listed from the residue outwards. Peptide text beside a SMILES is read from it. * marks the point of attachment. C20 diacid = O=C(O)CCCCCCCCCCCCCCCCCCC(=O)*; C18 diacid = O=C(O)CCCCCCCCCCCCCCCCC(=O)*; γGlu = O=C(O)[C@H](CCC(=O)[*:2])N[*:1]; Dab = NCC[C@H](N)C(=O)O; AEEA = NCCOCCOCC(=O)O; Aib = CC(C)(N)C(=O)O

For orientation: EC50 means the concentration at which the effect is half-maximal. For the compound `CC[C@H](C)[C@H](NC(=O)[C@@H]1CCCN1C(=O)CNC(=O)[C@H](Cc1ccccc1)NC(=O)[C@H](CC(N)=O)NC(=O)[C@H](CC(N)=O)NC(=O)[C@H](CO)NC(=O)[C@H](CO)NC(=O)[C@H](Cc1c[nH]cn1)NC(=O)C(C)(C)NC(=O)[C@H](CC(C)C)NC(=O)[C@H](Cc1ccccc1)NC(=O)[C@H](CC(N)=O)NC(=O)[C@H](C)NC(=O)[C@H](CC(C)C)NC(=O)[C@H](CCCNC(=N)N)NC(=O)[C@H](CCC(N)=O)NC(=O)[C@@H](NC(=O)[C@H](C)NC(=O)[C@@H]1CSSC[C@H](NC(=O)[C@H](CCCCN)NC(=O)[C@@H](N)CCCCNC(=O)CC[C@H](NC(=O)CCCCCCCCCCCCCCCCC(=O)O)C(=O)O)C(=O)N[C@@H](CC(N)=O)C(=O)N[C@@H]([C@@H](C)O)C(=O)N[C@@H](C)C(=O)N[C@@H]([C@@H](C)O)C(=O)N1)[C@@H](C)O)C(=O)N[C@@H](CC(C)C)C(=O)N1CCC[C@H]1C(=O)N1CCC[C@H]1C(=O)N[C@H](C(=O)N[C@@H](CC(N)=O)C(=O)N[C@H](C(=O)NCC(=O)N[C@@H](CO)C(=O)N[C@@H](CC(N)=O)C(=O)N[C@H](C(=O)N[C@@H](Cc1ccc(O)cc1)C(N)=O)[C@@H](C)O)C(C)C)[C@@H](C)O` [Peptide 129] (H-K([γGlu-C18 diacid])KCNTATCATQRLANFL[Aib]HSSNNFGPILPPTNVGSNTY-NH2; disulfide 3-8; N-terminus assumed), in series [1], the “Ratio (selectivity hAMYR vs hCTR, ratio of EC50 values at the two receptors)” value is listed as 10.4 and the EC50 was found to be 553 pM. Moreover, the EC50 in series [2] came to 5750 pM. Moreover, the “Time taken to detect increase in fluorescence intensity” value (“Time taken to detect increase” below) in series [3] is given as over 144 h. For the same compound, in the series with lean rats, the “Cummulative food intake (% vehicle treated intake) At 12 h” value is given as 29 % vehicle treated intake, the “Cummulative food intake (% vehicle treated intake) At 24 h” value worked out at 32.4 % vehicle treated intake and the “Cummulative food intake (% vehicle treated intake) At 48 h” value was 51 % vehicle treated intake.
For `CC[C@H](C)[C@H](NC(=O)[C@@H]1CCCN1C(=O)CNC(=O)[C@H](Cc1ccccc1)NC(=O)[C@H](CC(N)=O)NC(=O)[C@H](CC(N)=O)NC(=O)[C@H](CO)NC(=O)[C@H](CO)NC(=O)[C@H](Cc1c[nH]cn1)NC(=O)[C@@H](NC(=O)[C@H](CC(C)C)NC(=O)[C@H](Cc1ccccc1)NC(=O)[C@H](CC(N)=O)NC(=O)[C@H](C)NC(=O)[C@H](CC(C)C)NC(=O)[C@H](CCCNC(=N)N)NC(=O)[C@H](CCC(N)=O)NC(=O)[C@@H](NC(=O)[C@H](C)NC(=O)[C@@H]1CSSC[C@H](NC(=O)[C@H](CCCCN)NC(=O)COCCOCCNC(=O)COCCOCCNC(=O)CC[C@H](NC(=O)CCCCCCCCCCCCCCCCCCC(=O)O)C(=O)O)C(=O)N[C@@H](CC(N)=O)C(=O)N[C@@H]([C@@H](C)O)C(=O)N[C@@H](C)C(=O)N[C@@H]([C@@H](C)O)C(=O)N1)[C@@H](C)O)C(C)C)C(=O)N[C@@H](CC(C)C)C(=O)N1CCC[C@H]1C(=O)N1CCC[C@H]1C(=O)N[C@H](C(=O)N[C@@H](CC(N)=O)C(=O)N[C@H](C(=O)NCC(=O)N[C@@H](CO)C(=O)N[C@@H](CC(N)=O)C(=O)N[C@H](C(=O)N[C@@H](Cc1ccc(O)cc1)C(N)=O)[C@@H](C)O)C(C)C)[C@@H](C)O` [Peptide 113] ({C20 diacid-γGlu-AEEA-AEEA}-KCNTATCATQRLANFLVHSSNNFGPILPPTNVGSNTY-NH2; disulfide 2-7), in series [1], the “Ratio (selectivity hAMYR vs hCTR, ratio of EC50 values at the two receptors)” value is listed as 16 and the EC50 stood at 1170 pM. Besides, the EC50 in series [2] worked out at 18500 pM. In addition, the fibril-forming tendency entry in series [3] (ThT assay, 1 mg/mL, pH 4.0, 37 °C, compared to pramlintide) is given as “increases the fibril-forming tendency”. For the same compound, the “Time taken to detect increase” value in series [3] is under 5 h. For the same compound, in the series on lean rats, the “Cummulative food intake (% vehicle treated intake) At 12 h” value stood at 69.5 % vehicle treated intake, the “Cummulative food intake (% vehicle treated intake) At 24 h” value is 65.8 % vehicle treated intake and the “Cummulative food intake (% vehicle treated intake) At 48 h” value came to 77.9 % vehicle treated intake.
As for `CC[C@H](C)[C@H](NC(=O)[C@@H]1CCCN1C(=O)CNC(=O)[C@H](Cc1ccccc1)NC(=O)[C@H](CC(N)=O)NC(=O)C(C)(C)NC(=O)[C@H](CO)NC(=O)[C@H](CO)NC(=O)[C@H](Cc1c[nH]cn1)NC(=O)[C@H](CCCNC(=N)N)NC(=O)[C@H](CC(C)C)NC(=O)[C@H](Cc1ccccc1)NC(=O)[C@H](CC(N)=O)NC(=O)[C@H](C)NC(=O)[C@H](CC(C)C)NC(=O)[C@H](CCCNC(=N)N)NC(=O)[C@H](CCC(N)=O)NC(=O)[C@@H](NC(=O)[C@H](C)NC(=O)[C@@H]1CSSC[C@H](NC(=O)[C@@H](N)CCCCNC(=O)CC[C@H](NC(=O)CCCCCCCCCCCCCCCCC(=O)O)C(=O)O)C(=O)N[C@@H](CC(N)=O)C(=O)N[C@@H]([C@@H](C)O)C(=O)N[C@@H](C)C(=O)N[C@@H]([C@@H](C)O)C(=O)N1)[C@@H](C)O)C(=O)N[C@@H](CC(C)C)C(=O)N1CCC[C@H]1C(=O)N1CCC[C@H]1C(=O)N[C@H](C(=O)N[C@@H](CCC(=O)O)C(=O)N[C@H](C(=O)NCC(=O)N[C@@H](CO)C(=O)N[C@@H](CC(N)=O)C(=O)N[C@H](C(=O)N[C@@H](Cc1ccc(O)cc1)C(N)=O)[C@@H](C)O)C(C)C)[C@@H](C)O` [Peptide 44, K(γE-C18diacid)[CNTATC]ATQRLANFLRHSS(Aib)NFGPILPPTEVGSNTY-amide] (H-K([γGlu-C18 diacid])CNTATCATQRLANFLRHSS[Aib]NFGPILPPTEVGSNTY-NH2; disulfide 2-7; N-terminus assumed), in series [1], the “Ratio (selectivity hAMYR vs hCTR, ratio of EC50 values at the two receptors)” value is recorded as 22 and the EC50 worked out at 284 pM. In addition, the EC50 in series [2] is 6260 pM. The “Time taken to detect increase” value in series [3] is over 144 h. In the series with lean rats, the “Cummulative food intake (% vehicle treated intake) At 12 h” value was 33.5 % vehicle treated intake, the “Cummulative food intake (% vehicle treated intake) At 24 h” value was found to be 39.2 % vehicle treated intake and the “Cummulative food intake (% vehicle treated intake) At 48 h” value is given as 60.7 % vehicle treated intake.
In the case of `CC[C@H](C)[C@H](NC(=O)[C@H](C)NC(=O)[C@@H]1CCCN1C(=O)[C@H](Cc1ccccc1)NC(=O)[C@H](CC(N)=O)NC(=O)[C@H](CCN)NC(=O)[C@H](CO)NC(=O)[C@H](CO)NC(=O)[C@H](Cc1c[nH]cn1)NC(=O)[C@@H](NC(=O)[C@H](CC(C)C)NC(=O)[C@H](Cc1ccccc1)NC(=O)[C@H](CC(N)=O)NC(=O)[C@H](C)NC(=O)[C@H](CC(C)C)NC(=O)[C@H](CCCNC(=N)N)NC(=O)[C@H](CCC(N)=O)NC(=O)[C@@H](NC(=O)[C@H](C)NC(=O)[C@@H]1CSSC[C@H](NC(=O)[C@@H](N)CCCCNC(=O)CC[C@H](NC(=O)CC[C@H](NC(=O)CCCCCCCCCCCCCCCCC(=O)O)C(=O)O)C(=O)O)C(=O)N[C@@H](CC(N)=O)C(=O)N[C@@H]([C@@H](C)O)C(=O)N[C@@H](C)C(=O)N[C@@H]([C@@H](C)O)C(=O)N1)[C@@H](C)O)C(C)C)C(=O)N[C@@H](CC(C)C)C(=O)N[C@@H](CO)C(=O)N1CCC[C@H]1C(=O)N[C@H](C(=O)N[C@@H](CC(N)=O)C(=O)N[C@H](C(=O)NCC(=O)N[C@@H](CO)C(=O)N[C@@H](CC(N)=O)C(=O)N[C@H](C(=O)N[C@@H](Cc1ccc(O)cc1)C(N)=O)[C@@H](C)O)C(C)C)[C@@H](C)O` [Peptide 8, K(γE-γE-C18diacid)[CNTATC]ATQRLANFLVHSS(Dab)NFPAILSPTNVGSNTY-amide] (H-K([γGlu-γGlu-C18 diacid])CNTATCATQRLANFLVHSS[Dab]NFPAILSPTNVGSNTY-NH2; disulfide 2-7), in series [1], the “Ratio (selectivity hAMYR vs hCTR, ratio of EC50 values at the two receptors)” value was found to be 54 and the 50% effective concentration (EC50) was found to be 375 pM. In series [2], the EC50 came out at 20200 pM. In addition, the “Time taken to detect increase” value in series [3] came to 7 h. In addition, in the series on lean rats, the “Cummulative food intake (% vehicle treated intake) At 12 h” value is reported as 28.1 % vehicle treated intake, the “Cummulative food intake (% vehicle treated intake) At 24 h” value came to 42.7 % vehicle treated intake and the “Cummulative food intake (% vehicle treated intake) At 48 h” value is given as 68.8 % vehicle treated intake.
